Several values for one entry are separate records, joined by “and”; a condition that tells them apart may be missing. Equal entries are not always repeated. Entries after “also recorded” stand apart in the source; their conditions may differ. Where two headings read alike, the source gives them in different places.
How the values were obtained:
[1] = humans; cited from earlier work
[2] = tested on: Plasmodium berghei sporozoites
Description: Drug suspensions were made and transferred to a 20-ml bottle, drawn into a 1-ml syringe, and delivered via oral feeder (18 gauge) to the designated recipient. […] Both liver and blood stages of P. berghei infections were monitored using the in vivo imaging system (IVIS) and flow cytometry as described in [29].

CYP2C9 = tested on: CYP2C9; design: method as in PMID 18691982; conditions: cited from earlier work
CYP1A2 = tested on: CYP1A2; design: method as in PMID 18691982; conditions: cited from earlier work
[3] = cited from earlier work
CYP2D6 = conditions: cited from earlier work
CYP2C19 = conditions: cited from earlier work
CYP3A4 = conditions: cited from earlier work
[4] = cited from earlier work; remark: listed apart in the source
CYP 2D6 = conditions: in vivo; cited from earlier work
[5] = biological target: T1, Recombinant human CYP 2D6 (Homo sapiens, UniProt P10635); test: biochemical
Description: The samples were centrifuged at 15,700×g at 4 °C for 10 min, supernatants collected and analysed by liquid chromatography/tandem mass spectrometry (LC–MS/MS).
Analyte peaks were detected and quantified using a TSQ Quantum triple quadrupole mass spectrometer (Thermo Fisher Scientific, Waltham, MA, USA). Mass spectrometry conditions were optimized for each analyte (see Additional file 1 for masses and ion transitions). […] Samples were analysed with electrospray ionization in positive ion mode (source temperature 350 °C) by selected reaction monitoring at a collision pressure of 1.0 mTorr. Analyte peaks were detected and quantified using the Xcalibur software package.

[6] = tested on: primary human hepatocytes; test: Primaquine metabolism in pooled primary human hepatocytes pre-treated with antidepressants; format: in vitro ADME; conditions: antidepressant 10 μM pre-treatment 15 min; primaquine 1 μM; 4-h incubation
Description: Cryopreserved, pooled, human, primary hepatocytes were flash thawed in a 37 °C bath for 1 min. One vial of the thawed hepatocytes (5 million cells/vial) was added to 40 ml of pre-warmed thawing buffer, mixed thoroughly by gentle pipetting, and centrifuged at 72×g for 6 min. The supernatant was then aspirated and the pellet resuspended in hepatocyte incubation buffer (InVitroGRO HI media, BioreclamationIVT, Baltimore, MD, USA). The hepatocytes were then seeded onto 12-well culture plates, approximately 7 × 10^5 hepatocytes/ml per well, and incubated in a humidified 5 % CO2/95 % air incubator for 30 min prior to the addition of compounds.
All reactions were stopped by adding an equal volume of acetonitrile. […] The supernatant was collected and 200 μl of sample was loaded on to a 96-well LC–MS/MS plate for analysis. Samples were analysed immediately after sample collection.

[7] = biological target: T1, Recombinant human CYP 2D6; conditions: sixty-minute incubation; previously reported; cited from earlier work
[8] = tested on: primary human hepatocytes; conditions: 240-min incubation; previously reported; cited from earlier work
[9] = Mouse oral pharmacokinetics of primaquine and 5,6-orthoquinone with and without fluoxetine; conditions: mice; oral primaquine 20 mg/kg; fluoxetine 4 mg/kg/day for 3 days
Description: Analyte peaks were detected and quantified using a TSQ Quantum triple quadrupole mass spectrometer (Thermo Fisher Scientific, Waltham, MA, USA). […] Chromatographic separations were achieved using a Waters XTerra MS C18 (2.1 × 50 mm, 3.5 μm) column (Milford, MA, USA) with a Phenomenex (4 × 20 mm, 3.5 µm) guard column (Torrance, CA, USA) at a flow rate of 0.35 ml/min. A 7-min linear gradient from 5 to 95 % acetonitrile (0.1 % formic acid) was utilized. Samples were analysed with electrospray ionization in positive ion mode (source temperature 350 °C) by selected reaction monitoring at a collision pressure of 1.0 mTorr. Analyte peaks were detected and quantified using the Xcalibur software package.
Briefly, male, 9–12-weeks old, wild-type, C57BL/6 mice (Taconic Biosciences, Germantown, NY, USA) were used for pharmacokinetic evaluations. On arrival, animals were acclimated for 7 days in quarantine. The animals were housed in a cage maintained at a temperature range of 18–26 °C, 34–68 % relative humidity and a 12-h light/dark cycle. Food and water were provided ad libitum during quarantine and throughout the study. The animals were fed a standard rodent maintenance diet.
Pharmacokinetic studies were performed using oral administration. […] For each timepoint, animals were euthanized and plasma and liver samples collected. […] Supernatant was collected and analysed by LC–MS/MS analyses.

T1 sequence (P10635 whole entry): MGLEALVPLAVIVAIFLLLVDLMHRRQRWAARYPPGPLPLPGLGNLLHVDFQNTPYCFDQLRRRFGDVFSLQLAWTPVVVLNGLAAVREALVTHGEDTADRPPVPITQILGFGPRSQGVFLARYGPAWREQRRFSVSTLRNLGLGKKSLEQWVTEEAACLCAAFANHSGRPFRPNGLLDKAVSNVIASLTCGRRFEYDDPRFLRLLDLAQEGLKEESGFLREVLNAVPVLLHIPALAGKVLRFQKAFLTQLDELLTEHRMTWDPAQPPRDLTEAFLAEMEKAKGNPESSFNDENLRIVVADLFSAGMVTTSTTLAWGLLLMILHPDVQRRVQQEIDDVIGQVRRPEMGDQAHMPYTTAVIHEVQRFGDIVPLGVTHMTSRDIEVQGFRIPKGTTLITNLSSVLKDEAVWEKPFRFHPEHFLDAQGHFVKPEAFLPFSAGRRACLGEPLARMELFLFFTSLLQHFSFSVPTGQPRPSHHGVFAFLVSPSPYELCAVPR

Which “primaquine exposure on co-administration” value [1] does the source give for `CCN(CC)CCCC(C)Nc1ccnc2cc(Cl)ccc12` (stereo not drawn) [chloroquine] here?
The value was “significantly higher primaquine exposure”.

Which results are given for `CNCCC(Oc1ccc(C(F)(F)F)cc1)c1ccccc1` (stereo not drawn) [fluoxetine]?
effect of fluoxetine co-administration on primaquine anti-malarial efficacy ([2]; fluoxetine 4 mg/kg/day for 5 days with primaquine 20 mg/kg/day for 3 days): reduced primaquine anti-malarial efficacy; also recorded: negatively impacted primaquine efficacy; Enzymes inhibited by antidepressant: CYP2C9 (CYP2C9): moderate; Enzymes inhibited by antidepressant: CYP1A2 (CYP1A2): weak; Enzymes involved in biotransformation [3]: CYP2D6, CYP2C9, CYP2C19, and CYP3A4; Enzymes inhibited by antidepressant: CYP2D6 (CYP2D6): strong; Enzymes inhibited by antidepressant: CYP2C19 (CYP2C19): CYP2D6 (strong), CYP2C9 (moderate), CYP2C19, (weak to moderate), CYP3A4 (weak to moderate), CYP1A2 (weak); Enzymes inhibited by antidepressant: CYP3A4 (CYP3A4): weak to moderate; elimination half-life [4]: long; change of CYP 2D6 phenotype of human subjects (CYP 2D6): from extensive to poor metabolizers

For `CN(C)CC(c1ccc(O)cc1)C1(O)CCCCC1` (stereo not drawn) [desvenlafaxine], which “Enzymes inhibited by antidepressant: CYP3A4” value (CYP3A4) is on record?
The value was “CYP3A4 (weak)”.

What about the IC50 [5] of the same compound?
The IC50 was ~94 µM and 94.3 µM.

Which results are given for `COc1ccc(C(CN(C)C)C2(O)CCCCC2)cc1` (stereo not drawn) [venlafaxine]?
inhibition of primaquine metabolism in hepatocytes [6]: no inhibition of primaquine metabolism; Enzymes inhibited by antidepressant: CYP2D6 (CYP2D6): CYP2D6 (weak); IC50 [5]: 19.1 µM

Which results are given for `COc1cc(NC(C)CCCN)c2ncccc2c1` (stereo not drawn) [primaquine]?
blood stage parasitaemia status throughout the 31-day experiment ([2]; flow cytometry, P. berghei infected mice): parasitaemia-free; primaquine metabolism signal by CYP 2D6 [7]: > 80%; primaquine metabolism signal in hepatocytes [8]: ~ 40%; pharmacokinetics of parent primaquine upon co-administration with fluoxetine [9]: not drastically altered

For `NCCC(Oc1ccc(C(F)(F)F)cc1)c1ccccc1` (stereo not drawn) [nor-fluoxetine], which “CYP 2D6 inhibition by major metabolite of fluoxetine” value (CYP2D6; no reference given) is on record?
Its value is “potent CYP 2D6 inhibitor”.

And the elimination half-life ([4]; in vivo)?
The elimination half-life was “long”.

What does the source list for `CN(C)CCCC1(c2ccc(F)cc2)OCc2cc(C#N)ccc21` (stereo not drawn) [citalopram]?
Enzymes involved in biotransformation [3]: CYP2C19, CYP2D6, and CYP3A4; Enzymes inhibited by antidepressant: CYP2D6 (CYP2D6): CYP2D6 (weak); IC50 [5]: 9.28 µM

With `CN(C)CCC[C@@]1(c2ccc(F)cc2)OCc2cc(C#N)ccc21` [escitalopram] as the compound, how does the “Enzymes involved in biotransformation” value [3] read?
Its value is “CYP2C19, CYP2D6, and CYP3A4”.

And the “Enzymes inhibited by antidepressant: CYP2D6” value (CYP2D6)?
The value was “CYP2D6 (weak)”.

And the IC50 [5]?
The IC50 was 7.35 µM.

Which results are given for `Fc1ccc([C@@H]2CCNC[C@H]2COc2ccc3c(c2)OCO3)cc1` [paroxetine]?
Enzymes inhibited by antidepressant: CYP2C9 (CYP2C9): CYP2D6 (strong), CYP1A2 (weak), CYP2C9 (weak), CYP2C19 (weak), CYP3A4 (weak); Enzymes inhibited by antidepressant: CYP1A2 (CYP1A2): CYP2D6 (strong), CYP1A2 (weak), CYP2C9 (weak), CYP2C19 (weak), CYP3A4 (weak); Enzymes involved in biotransformation [3]: CYP2D6 and CYP3A4; Enzymes inhibited by antidepressant: CYP2D6 (CYP2D6): CYP2D6 (strong), CYP1A2 (weak), CYP2C9 (weak), CYP2C19 (weak), CYP3A4 (weak); Enzymes inhibited by antidepressant: CYP2C19 (CYP2C19): CYP2D6 (strong), CYP1A2 (weak), CYP2C9 (weak), CYP2C19 (weak), CYP3A4 (weak); Enzymes inhibited by antidepressant: CYP3A4 (CYP3A4): CYP2D6 (strong), CYP1A2 (weak), CYP2C9 (weak), CYP2C19 (weak), CYP3A4 (weak)

Which results are given for `CN[C@H]1CC[C@@H](c2ccc(Cl)c(Cl)c2)c2ccccc21` [sertraline]?
Enzymes inhibited by antidepressant: CYP2C9 (CYP2C9): CYP2D6 (weak to moderate), CYP1A2 (weak), CYP2C9 (weak), CYP2C19 (weak), CYP3A4 (weak); Enzymes involved in biotransformation [3]: CYP2C9, CYP2C19, CYP2D6, and CYP3A4; IC50 [5]: 4.35 µM

Source: publication PMC4869338 (Malaria Journal, 2016)
